From patent US11021478B2, “Indolizine derivatives and their application in medicine” (Kind Pharmaceutical, priority 2017, dated 2021)

Each compound was assayed against HIF prolyl hydroxylase-2 (HIF-PHD2) (Homo sapiens (Human), UniProt Q9GZT9) (assay: Effect of compounds on activities of HIF prolyl hydroxylase-2 (hydroxylation of immobilized HIF-1α556-574 peptide, Eu-VBC binding, OD 450 nm)). Conditions: HIF-PHD2, biotinyl-HIF-1α556-574 substrate; representative, relative values.
Chain of HIF prolyl hydroxylase-2 (HIF-PHD2) (Q9GZT9 whole entry, species assumed): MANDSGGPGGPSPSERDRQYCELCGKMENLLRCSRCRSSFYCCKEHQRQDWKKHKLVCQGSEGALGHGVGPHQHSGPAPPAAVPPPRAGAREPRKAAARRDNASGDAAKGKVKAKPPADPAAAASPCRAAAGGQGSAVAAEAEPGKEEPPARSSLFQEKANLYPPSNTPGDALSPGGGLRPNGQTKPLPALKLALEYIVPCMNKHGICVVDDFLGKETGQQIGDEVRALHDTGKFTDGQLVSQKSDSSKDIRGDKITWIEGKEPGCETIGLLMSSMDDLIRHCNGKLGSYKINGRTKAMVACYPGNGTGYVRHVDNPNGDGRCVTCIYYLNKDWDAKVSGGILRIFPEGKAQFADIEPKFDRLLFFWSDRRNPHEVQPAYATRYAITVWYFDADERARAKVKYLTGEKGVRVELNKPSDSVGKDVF
Format: biochemical
In the case of `CCOC(=O)CNC(=O)C1=C(O)C2(CCCC2)n2cccc2C1=O` [Example 10, (6′-Hydroxy-8′-oxo-8′H-spiro[cyclopentane-1,5′-indolizine]-7′-carbonyl)glycine ethyl ester], the IC50 is reported as > 10 µM. In the case of `CC(C)(C)C(=O)OCOC(=O)CNC(=O)C1=C(O)C2(CCCCC2)n2cccc2C1=O` [Example 22, (((6′-hydroxy-8′-oxo-8′H-spiro[cyclohexane-1,5′-indolizine]-7′-carbonyl)glycyloxy)methyl) pivalate], the IC50 is reported as > 10 µM. With `CCOC(=O)[C@H](C)NC(=O)C1=C(O)C2(CCCC2)n2cccc2C1=O` [Example 21, (6′-Hydroxy-8′-oxo-8′H-spiro[cyclopentane-1,5′-indolizine]-7′-carbonyl)-L-alanine ethyl ester] the IC50 was > 10 µM. With `CCOC(=O)CNC(=O)C1=C(O)C2(CCCCC2)n2cccc2C1=O` [Example 46, (6′-Hydroxy-8′-oxo-8′H-spiro[cyclohexane-1,5′-indolizine]-7′-carbonyl)glycine ethyl ester] the IC50 was > 10 µM. For `COC(=O)CNC(=O)C1=C(O)C2(CCCC2)n2cccc2C1=O` [Example 9, (6′-Hydroxy-8′-oxo-8′H-spiro[cyclopentane-1,5′-indolizine]-7′-carbonyl)glycine methyl ester], the IC50 was > 10 µM.

These compounds were tested on hemoglobin in mice (assay: Effect of compounds of Examples on hemoglobin in mice). Conditions: male C57B1/6 mice, oral 30 mg/kg, 3 times each week for 2 weeks; 6 hours after last administration minus before first administration.
Format: in vivo
Procedure: Male C57B1/6 mice of 8-10 weeks (Shanghai Slack Laboratory Animals Co., Ltd.) were administrated orally the test compounds in 30 mg/kg for 2 weeks, 3 times each week and Roxadustat (CAS: 808118-40-3) was administrated in an amount of 60 mg/kg as a positive control. Before the first administration and 6 hours after the last administration, about 30 μl of blood was taken from the mandibular vein, and the hemoglobin content was measured by Hemocue hemoglobin analyzer. The hemoglobin elevation was calculated as the value obtained by subtracting the first hemoglobin content from the hemoglobin content after the last administration.
In addition, hemoglobin elevation was also tested in the same manner for Roxadustat as a positive control. Roxadustat was purchased from Selleckchem, which was known to be a potent inhibitor of HIF prolyl hydroxylase in the art and be able to increase hemoglobin production.
Work on `CC1(C)C(O)=C(C(=O)NCC(=O)O)C(=O)c2cccn21` [Example 4, (6-Hydroxy-5,5-dimethyl-8-oxo-5,8-dihydroindolizin-7-carbonyl) glycine] yielded a Hemoglobin elevation of 0.8 g/dL. `O=C(O)CNC(=O)C1=C(O)C2(CCCC2)n2c(ccc2-c2ccccc2)C1=O` [Example 24, (6′-Hydroxy-8′-oxo-3′-phenyl-8′H-spiro[cyclopentane-1,5′-indolizine]-7′-carbonyl)glycine] gave a Hemoglobin elevation of 4.0 g/dL. For `CCOC(=O)CNC(=O)C1=C(O)C2(CCCC2)n2cccc2C1=O` [Example 10, (6′-Hydroxy-8′-oxo-8′H-spiro[cyclopentane-1,5′-indolizine]-7′-carbonyl)glycine ethyl ester], the Hemoglobin elevation was 1.9 g/dL. `C[C@H]1CC[C@]2(CC1)C(O)=C(C(=O)NCC(=O)O)C(=O)c1cccn12` [Example 68, ((1,4-trans)-6′-hydroxy-4-methyl-8′-oxo-8′H-spiro[cyclohexane-1,5′-indolizine]-7′-carbonyl)glycine] showed a Hemoglobin elevation of 5.2 g/dL. For `C[C@H](NC(=O)C1=C(O)C2(CCCCC2)n2cccc2C1=O)C(=O)O` [Example 14, (6′-Hydroxy-8′-oxo-8′H-spiro[cyclohexane-1,5′-indolizine]-7′-carbonyl)-L-alanine], the Hemoglobin elevation was 1.0 g/dL. With `C[C@@H](NC(=O)C1=C(O)C2(CCCC2)n2cccc2C1=O)C(=O)O` [Example 12, (6′-Hydroxy-8′-oxo-8′H-spiro[cyclopentane-1,5′-indolizine]-7′-carbonyl)-D-alanine] the Hemoglobin elevation was 0.8 g/dL. For `C[C@H]1CC[C@@]2(CC1)C(O)=C(C(=O)NCC(=O)O)C(=O)c1cccn12` [Example 69, ((1,4-cis)-6′-hydroxy-4-methyl-8′-oxo-8′H-spiro[cyclohexane-1,5′-indolizine]-7′-carbonyl)glycine], the Hemoglobin elevation was 0.7 g/dL. `CCOC(=O)[C@H](C)NC(=O)C1=C(O)C2(CCCC2)n2cccc2C1=O` [Example 21, (6′-Hydroxy-8′-oxo-8′H-spiro[cyclopentane-1,5′-indolizine]-7′-carbonyl)-L-alanine ethyl ester] showed a Hemoglobin elevation of 1.8 g/dL. `C[C@H](NC(=O)C1=C(O)C2(CC2)n2cccc2C1=O)C(=O)O` [Example 2, (6′-Hydroxy-8′-oxo-8′H-spiro[cyclopropane-1,5′-indolizine]-7′-carbonyl)-L-alanine] gave a Hemoglobin elevation of 0.6 g/dL. `C[C@H](NC(=O)C1=C(O)C2(CCC2)n2cccc2C1=O)C(=O)O` [Example 7, (6′-Hydroxy-8′-oxo-8′H-spiro[cyclobutane-1,5′-indolizine]-7′-carbonyl)-L-alanine] was tested, and the Hemoglobin elevation was 0.7 g/dL. For `O=C(O)CNC(=O)C1=C(O)C2(CCCCCC2)n2cccc2C1=O` [Example 67, (6′-Hydroxy-8′-oxo-8′H-spiro[cycloheptane-1,5′-indolizine]-7′-carbonyl)glycine], the Hemoglobin elevation was 0.8 g/dL. For `O=C(O)CNC(=O)C1=C(O)C2(CCC2)n2cccc2C1=O` [Example 6, (6′-Hydroxy-8′-oxo-8′H-spiro[cyclobutane-1,5′-indolizine]-7′-carbonyl)glycine], the Hemoglobin elevation was 0.9 g/dL. `O=C(O)CNC(=O)C1=C(O)C2(CCCC2)n2cccc2C1=O` [Example 8, (6′-Hydroxy-8′-oxo-8′H-spiro[cyclopentane-1,5′-indolizine]-7′-carbonyl)glycine] showed a Hemoglobin elevation of 3.1 g/dL. Work on `O=C(O)CNC(=O)C1=C(O)C2(CCCCC2)n2cccc2C1=O` [Example 13, (6′-Hydroxy-8′-oxo-8′H-spiro[cyclohexane-1,5′-indolizine]-7′-carbonyl)glycine] yielded a Hemoglobin elevation of 4.3 g/dL. `O=C(O)CNC(=O)C1=C(O)C2(CC2)n2cccc2C1=O` [Example 1, (6′-Hydroxy-8′-oxo-8′H-spiro[cyclopropane-1,5′-indolizine]-7′-carbonyl) glycine] showed a Hemoglobin elevation of 1.0 g/dL. Compound `C[C@H](NC(=O)C1=C(O)C2(CCCC2)n2cccc2C1=O)C(=O)O` [Example 11, (6′-Hydroxy-8′-oxo-8′H-spiro[cyclopentane-1,5′-indolizine]-7′-carbonyl)-L-alanine] has a Hemoglobin elevation of 2.0 g/dL. Work on `O=C(O)CNC(=O)C1=C(O)C2(CCCCC2)n2c(ccc2-c2ccccc2)C1=O` [Example 35, (6′-Hydroxy-8′-oxo-3′-phenyl-8′H-spiro[cyclohexane-1,5′-indolizine]-7′-carbonyl)glycine] yielded a Hemoglobin elevation of 2.5 g/dL. With `O=C(O)CNC(=O)C1=C(O)C2(CCCC2)n2ccc(C3CC3)c2C1=O` [Example 62, (1′-cyclopropyl-6′-hydroxy-8′-oxo-8′H-spiro[cyclopentane-1,5′-indolizine]-7′-carbonyl)glycine] the Hemoglobin elevation was 0.1 g/dL. For `COC(=O)CNC(=O)C1=C(O)C2(CCCC2)n2cccc2C1=O` [Example 9, (6′-Hydroxy-8′-oxo-8′H-spiro[cyclopentane-1,5′-indolizine]-7′-carbonyl)glycine methyl ester], the Hemoglobin elevation was 2.0 g/dL. `O=C(O)CNC(=O)C1=C(O)C2(CCC2)n2c(ccc2-c2ccccc2)C1=O` [Example 39, (6′-Hydroxy-8′-oxo-3′-phenyl-8′H-spiro[cyclobutane-1,5′-indolizine]-7′-carbonyl)glycine] gave a Hemoglobin elevation of 4.8 g/dL. For `C[C@H](NC(=O)C1=C(O)C(C)(C)n2cccc2C1=O)C(=O)O` [Example 5, (6-Hydroxy-5,5-dimethyl-8-oxo-5,8-dihydroindolizin-7-carbonyl)-L-alanine], the Hemoglobin elevation was 1.0 g/dL.

Same assay, conditions: positive control, male C57B1/6 mice, 60 mg/kg, 3 times each week for 2 weeks; 6 hours after last administration minus before first administration
With `Cc1nc(C(=O)NCC(=O)O)c(O)c2ccc(Oc3ccccc3)cc12` [Roxadustat, reference compound] the Hemoglobin elevation was 1.7 g/dL.
